{
  "source": "patent US7541173B2",
  "about": "“Solvent tolerant microorganisms and methods of isolation” (E.I. du Pont de Nemours and Company, priority 2006, dated 2009)",
  "key": {"[1]": {"test_system": "most microorganisms described in the art", "details": "liquid medium at 37° C.; cited from earlier work"}, "[2]": {"test_system": "butanol tolerant Lactobacillus strains", "type": "cell-based", "details": "S20 agar or TSA agar, 37° C., 24 to 72 h", "description": "The square-well microtiter plate was sealed with an adhesive cover (Beckman Coulter Inc.; Catalog No. 538619) and incubated at 37° C. with shaking for up to 72 h. The square-well microtiter plate was used to make a master plate by dispensing 200 μL of culture from each square well into a corresponding well in a “U-bottom” microtiter plate (VWR Scientific Products, West Chester, Pa.; Catalog No. 62409-052)."}, "[3]": {"test_system": "microbial consortium from wastewater sludge samples", "details": "1-butanol 1.6%, chemostat, 37° C."}},
  "data": [
    {"substance": "1-butanol", "values": [
      {"measurement": "concentration at which growth is totally inhibited", "setting": "[1]", "value": "less than 2.0 % w/v"},
      {"measurement": "1-butanol concentration in agar medium on which isolates grew", "setting": "[2]", "value": 3, "unit": "%"},
      {"measurement": "cell density after continued incubation", "setting": "[3]; after adaptation", "value": 2.3, "unit": "OD600"},
      {"measurement": "cell density after increasing 1-butanol in feed", "setting": "[3]; initial decrease", "value": "less than 1.5 OD600"}
    ]}
  ]
}
